As usually defined, the IC50 is the concentration needed to halve the response being measured.

Calls of active or inactive are those of the source. The rule behind the calls is not given here. A value given as a limit tells only on which side of the number the result lay.

For this test, the target named is Ubiquitin carboxyl-terminal hydrolase 10 (Homo sapiens) (UniProt Q14694). The test can be described thus: primary hit verification, biochemical, ubiquitin-specific protease 10 deubiquitylase inhibitors, concentration-effect titration (AID 1645863).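 Note: potency values describe inhibition of USP10 cleavage of a fluorogenic ubiquitin substrate.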 To be noted: USP10 deubiquitinase enzymatic assay.
Ubiquitin carboxyl-terminal hydrolase 10 (Homo sapiens), sequence (Q14694 whole entry, looked up): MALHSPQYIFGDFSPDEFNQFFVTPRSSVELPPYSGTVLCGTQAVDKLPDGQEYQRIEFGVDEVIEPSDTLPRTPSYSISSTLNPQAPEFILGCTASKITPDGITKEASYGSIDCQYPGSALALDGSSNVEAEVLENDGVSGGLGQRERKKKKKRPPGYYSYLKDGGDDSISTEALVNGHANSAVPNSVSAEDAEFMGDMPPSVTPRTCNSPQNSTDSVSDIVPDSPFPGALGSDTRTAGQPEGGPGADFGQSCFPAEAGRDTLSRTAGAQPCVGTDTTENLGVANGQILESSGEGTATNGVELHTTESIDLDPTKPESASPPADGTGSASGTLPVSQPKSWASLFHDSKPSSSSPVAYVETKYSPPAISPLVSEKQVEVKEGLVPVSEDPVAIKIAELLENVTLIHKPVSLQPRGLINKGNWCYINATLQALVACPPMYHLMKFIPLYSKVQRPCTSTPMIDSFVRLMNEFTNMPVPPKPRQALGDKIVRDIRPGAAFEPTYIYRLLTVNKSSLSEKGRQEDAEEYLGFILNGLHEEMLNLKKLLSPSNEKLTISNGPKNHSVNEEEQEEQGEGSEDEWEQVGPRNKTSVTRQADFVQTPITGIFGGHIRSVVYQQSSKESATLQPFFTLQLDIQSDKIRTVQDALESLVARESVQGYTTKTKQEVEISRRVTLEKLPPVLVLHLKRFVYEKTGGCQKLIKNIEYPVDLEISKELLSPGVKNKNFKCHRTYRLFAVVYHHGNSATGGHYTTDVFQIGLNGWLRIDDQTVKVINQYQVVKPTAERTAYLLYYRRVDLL
Consider `CCOc1ccc(-c2nc(SCC(=O)Nc3cccc(C)c3)n3[nH]c(=O)cc3n2)cc1`, for which the IC50 is > 40 µM (inactive).

Turning to `Cc1cccc(NC(=O)CCCc2nnc3c(=O)n(-c4cccc(F)c4)ccn23)c1`, the IC50 was > 40 µM (inactive).

As for `Cc1ccc(-c2nc(NC(=O)COc3ccc(Cl)cc3)no2)cc1`, the IC50 is 13.5 µM.

`O=C(Cn1c(=O)n(CCC(=O)NC2CCCC2)c(=O)c2ccccc21)NCc1ccccc1Cl`: the IC50 is > 40 µM (inactive).

As to `Cn1c(=O)c2nc(-c3ccc(Cl)cc3)nnc2n(C)c1=O`, the IC50 was 3.21 µM.

`Fc1cccc(Nc2nc(-c3ccccn3)nc3ccccc23)c1`: the IC50 was > 40 µM (inactive).

With `O=C(Cn1cc(C(=O)c2ccccc2)c(=O)c2cc(F)ccc21)Nc1ccc2c(c1)OCCO2`, the IC50 is > 40 µM (inactive).

Take `N#Cc1ccc(NC(=O)Nc2cccn(Cc3ccccc3F)c2=O)cc1`: the IC50 was > 40 µM (inactive).

Regarding `CCCCOc1ccc(C(=O)n2ccn(S(=O)(=O)c3ccc(C)cc3)c2=O)cc1`, the IC50 was > 40 µM (inactive).

As for `Cc1nnc2ccc(-c3ccc(NC(=O)c4ccc(Br)o4)cc3)nn12`, the IC50 is > 40 µM (inactive).

As to `Cc1ccc(NCc2cc3c(-c4cccc(F)c4)nn(-c4ccccc4)c3[nH]c2=O)cc1C`, the IC50 is > 40 µM (inactive).

For the compound `COc1ccc(-c2cc(-c3ccc(F)cc3)[nH]c(=O)c2C#N)cc1`, the IC50 was 18.3 µM.

On to `CCc1ccc([C@@H]2c3c(C)nn(C)c3NC(=O)[C@H]2NC(=O)c2ccc(OC)c(OC)c2)cc1`, for which the IC50 was > 40 µM (inactive).

`CCOc1ccc(C2SCC(=O)Nc3c2c(=O)[nH]n3C2CCCCC2)cc1` (stereo not drawn): the IC50 is > 40 µM (inactive).

For the compound `O=C(NC1CCCC1)c1ccc(Cn2c(=O)c3ccccc3n(Cc3cc(=O)n4ccccc4n3)c2=O)cc1`, the IC50 is > 40 µM (inactive).

On to `O=C(NCc1ccc2c(c1)OCO2)c1cn(-c2cccc(Cl)c2)nn1`, for which the concentration for half-maximal inhibition (IC50) was 33 µM.

Regarding `Cc1ccc(N2CC(C(=O)Nc3cccc(-c4noc(C)n4)c3)CC2=O)cc1` (stereo not drawn), the IC50 is > 40 µM (inactive).

In the case of `COc1ccc(-c2nc(NCCCN3CCOCC3)c3ccccc3n2)cc1`, the IC50 was > 40 µM (inactive).

`O=C(Cn1c(=O)n(Cc2ccccc2)c(=O)c2ncccc21)NCc1ccccc1Cl`: the IC50 was > 40 µM (inactive).

`COC(=O)Nc1cccn(Cc2c(Cl)cccc2Cl)c1=O`: the IC50 is > 40 µM (inactive).

Regarding `Cc1cccc(NC(=O)CSc2nnc(-c3n[nH]c4c3CCC4)n2N)c1C`, the IC50 is > 40 µM (inactive).

For `O=C(CC1C(=O)N(C2CCCC2)c2nc3ccccc3n21)Nc1ccccc1` (stereo not drawn), the IC50 was > 40 µM (inactive).

For `O=c1[nH]c(C2CCN(S(=O)(=O)c3ccc(S(=O)(=O)NC4CCCCC4)cc3)CC2)nc2c1nnn2Cc1c(F)cccc1Cl`, the IC50 is 16.4 µM.

On to `C[C@H](NC(=O)Cc1ccccc1F)c1nc2cc(-c3ccccc3F)ncn2n1`, for which the concentration for half-maximal inhibition (IC50) is 36.4 µM.

As for `Cc1cc(C)c(NC(=O)Cn2c(SCc3cccc(F)c3)nc3cccnc32)c(C)c1`, the IC50 was > 40 µM (inactive).

As to `O=C(CCc1ccc(F)cc1)N1CCOC(CCc2cc(=O)[nH]cn2)C1` (stereo not drawn), the IC50 is > 40 µM (inactive).

For the compound `O=C(/C=C/c1ccco1)N1CCC(Cn2cccn2)CC1`, the IC50 was > 40 µM (inactive).

With `Cc1cc(N2CCN(c3ncccn3)CC2)nc2ccc(NC(=O)c3ccncc3)cc12`, the IC50 was > 40 µM (inactive).

Turning to `COc1ccc(NC(=O)c2nnc(C(=O)NCc3ccccc3F)s2)cc1`, the IC50 is > 40 µM (inactive).

As for `Cc1ccccc1-c1noc(-c2cn(Cc3ccc(NC(=O)Cc4ccccc4)cc3)cn2)n1`, the IC50 is > 40 µM (inactive).

For `COc1cc(O)cc2c1C(=O)OC(C)CCCCCCC2` (stereo not drawn), the half-maximal inhibitory concentration (IC50) was 29.5 µM.

With `CCCn1cc(C(=O)N2CCC3(CC2)CC2(CO3)Nc3ccccc3-n3cccc32)c(C)n1` (stereo not drawn), the IC50 was > 40 µM (inactive).

With `O=C(Cc1ccc(-n2c(=O)c3ccccc3n(Cc3cccc([N+](=O)[O-])c3)c2=O)cc1)NC1CCCC1`, the IC50 was > 40 µM (inactive).

The record behind these values is PubChem BioAssay AID1645863 (Buhrlage Lab, Dana-Farber Cancer Institute and Novartis …, 2021).
